Consider 6 compounds from patent US12195410B2, “Nitrapyrin compositions for enhancing nitrogen nutrient use efficiency and improving plant growth” (Verdesian Life Sciences U.S., LLC, priority 2018, dated 2025).

A short description of data set [1]: Formation of solutions of nitrapyrin salts at 20% w/w nitrapyrin and grading of solutions. It counts as physicochemical. On the set-up: key: 5: Fully dissolved; 4: Mostly dissolved; 3: Mostly not dissolved; 2: Not dissolved; 1: Additional precipitate. The text has this:
Example 2. Formation of Solutions of Nitrapyrin Salts and Grading of Solutions

Data set [2] can be described thus: Nitrapyrin volatilization, weight loss on heated balance at 100° C. Format: physicochemical. As to conditions: for weight as a percent of original weight: heated balance 100° C. On the procedure: Three materials were placed on a heated balance at 100° C. and had their weights observed every minute for 10 minutes, as a percent of original weight. The materials were: • 1. pure nitrapyrin, • 2. 25% w/w solution of nitrapyrin in sulfolane, and • 3. solution of 25% nitrapyrin salt with equimolar (on acid basis) amount of maleic-itaconic copolymer, also in sulfolane (nitrapyrin/polyanionic polymer salt).
Therefore, the disclosed nitrapyrin salts substantially reduce the volatilization of nitrapyrin.

The mark [3] stands for this setting: solvent Rhodiasolv Polarclean (L).
The mark [4] stands for this setting: solvent propylene carbonate (F).
Where [5] appears, read: solvent tripropylene glycol (E).

Each structure is given as a SMILES string.

`O=C(O)C(O)C(O)C(=O)O` (centres unmarked) [tartaric]: the grading of solution stood at 5 in data set [1] (solvent Agnique AMD3L (I)); 5 in data set [1] (solvent Agnique AMD810 (H)); 1 in data set [1] (solvent PT250 (C)); 2 in data set [1] (solvent PT700 (B)); 5 in data set [1] (solvent Rhodiasolv ADMA10 (J)); 5 in data set [1] (solvent Rhodiasolv ADMA810 (K)). Moreover, the grading of solution is on record as 5 in data set [1] (setting [3]); 2 in data set [1] (solvent dipropylene glycol (A)); 2 in data set [1] (setting [4]); 2 in data set [1] (solvent triacetin (G)); 1 in data set [1] (solvent triethylene glycol (D)); 2 in data set [1] (setting [5]).

Take `CC(O)(P(=O)(O)O)P(=O)(O)O.Clc1cccc(C(Cl)(Cl)Cl)n1.Clc1cccc(C(Cl)(Cl)Cl)n1.Clc1cccc(C(Cl)(Cl)Cl)n1.Clc1cccc(C(Cl)(Cl)Cl)n1` [etidronic]: the grading of solution is 5 in data set [1] (solvent Agnique AMD3L (I)); 4 in data set [1] (solvent Agnique AMD810 (H)); 1 in data set [1] (solvent PT250 (C)); 4 in data set [1] (solvent PT700 (B)); 5 in data set [1] (solvent Rhodiasolv ADMA10 (J)); 4 in data set [1] (solvent Rhodiasolv ADMA810 (K)). The grading of solution was found to be 5 in data set [1] (setting [3]); 1 in data set [1] (solvent dipropylene glycol (A)); 2 in data set [1] (setting [4]); 2 in data set [1] (solvent triacetin (G)); 1 in data set [1] (solvent triethylene glycol (D)); 1 in data set [1] (setting [5]).

In the case of `Clc1cccc(C(Cl)(Cl)Cl)n1` [nitrapyrin without solvent, Nitrapyrin], the “weight as a percent of original weight” value in data set [2] (experiment time 0 min) amounted to 100.00%; in data set [2] (experiment time 1 min) it was 99.20%; in data set [2] (experiment time 2 min) it was 98.56%; in data set [2] (experiment time 3 min), 97.92%; in data set [2] (experiment time 4 min), 96.00%; in data set [2] (experiment time 5 min), 94.87%. The “weight as a percent of original weight” value in data set [2] (experiment time 6 min) worked out at 93.75%; in data set [2] (experiment time 7 min) it was 92.63%; in data set [2] (experiment time 8 min) it was 90.87%; in data set [2] (experiment time 9 min), 89.90%; in data set [2] (experiment time 10 min) it was 89.10%. Further, in data set [2] (nitrapyrin without solvent vs. solvent alone, 100° C., 3 to 10 min), the “nitrapyrin sulfolane volatility ratio, Delta 3-10” value worked out at 401%. Moreover, in data set [2] (nitrapyrin without solvent vs. solvent alone, 100° C., 4 to 10 min), the “nitrapyrin sulfolane volatility ratio, Delta 4-10” value was found to be 392%. For the same compound, the “nitrapyrin sulfolane volatility ratio, Delta 5-10” value in data set [2] (nitrapyrin without solvent vs. solvent alone, 100° C., 5 to 10 min) is 393%.

With `Clc1cccc(C(Cl)(Cl)Cl)n1.Clc1cccc(C(Cl)(Cl)Cl)n1.O=C(O)CC(O)C(=O)O` [malic], the grading of solution in data set [1] (solvent Agnique AMD3L (I)) amounted to 5; in data set [1] (solvent Agnique AMD810 (H)), 5; in data set [1] (solvent PT250 (C)), 1; in data set [1] (solvent PT700 (B)) it was 4; in data set [1] (solvent Rhodiasolv ADMA10 (J)), 5; in data set [1] (solvent Rhodiasolv ADMA810 (K)) it was 5. The grading of solution in data set [1] (setting [3]) amounted to 5; in data set [1] (solvent dipropylene glycol (A)) it was 2; in data set [1] (setting [4]), 3; in data set [1] (solvent triacetin (G)), 3; in data set [1] (solvent triethylene glycol (D)), 2; in data set [1] (setting [5]), 2.

As to `Clc1cccc(C(Cl)(Cl)Cl)n1.Clc1cccc(C(Cl)(Cl)Cl)n1.O=C(O)c1cccc(C(=O)O)c1` [isophthalic], the grading of solution came out at 3 in data set [1] (solvent Agnique AMD3L (I)); 3 in data set [1] (solvent Agnique AMD810 (H)); 1 in data set [1] (solvent PT250 (C)); 2 in data set [1] (solvent PT700 (B)); 3 in data set [1] (solvent Rhodiasolv ADMA10 (J)); 3 in data set [1] (solvent Rhodiasolv ADMA810 (K)). Besides, the grading of solution is 3 in data set [1] (setting [3]); 2 in data set [1] (solvent dipropylene glycol (A)); 3 in data set [1] (setting [4]); 3 in data set [1] (solvent triacetin (G)); 1 in data set [1] (solvent triethylene glycol (D)); 4 in data set [1] (setting [5]).

As for `O=C(O)CCC(=O)O` [succinic], the grading of solution was found to be 5 in data set [1] (solvent Agnique AMD3L (I)); 5 in data set [1] (solvent Agnique AMD810 (H)); 1 in data set [1] (solvent PT250 (C)); 4 in data set [1] (solvent PT700 (B)); 5 in data set [1] (solvent Rhodiasolv ADMA10 (J)); 5 in data set [1] (solvent Rhodiasolv ADMA810 (K)). In addition, the grading of solution in data set [1] (setting [3]) worked out at 5; in data set [1] (solvent dipropylene glycol (A)) it was 3; in data set [1] (setting [4]), 3; in data set [1] (solvent triacetin (G)), 2; in data set [1] (solvent triethylene glycol (D)), 2; in data set [1] (setting [5]) it was 3.
